In the assay the target is recombinant TLR4 (Homo sapiens, UniProt O00206). The assay is described as follows: Interaction with TLR4 by surface plasmon resonance. It counts as binding. The conditions noted are these: 0-800 μg/ml, 10 μl/min, 120 seconds. The source says:
In order to immobilize a target receptor on an assay chip, the receptor was immobilized on the chip by flowing recombinant TLR4 while flowing an EDC/NHS solvent. Thereafter, ethanolamine was flowed to remove weakly immobilized or non-immobilized receptor on the chip.
Background: Surface plasmon resonance follows binding to a sensor surface in real time, without labels.

This is an account of results in patent publication US20250319191A1, “PHARMACEUTICAL COMPOSITION COMPRISING HYALURONIC ACID COMPLEX FOR PREVENTION OR TREATMENT OF SKIN DISEASE” (AJOU UNIVERSITY INDUSTRY-ACADEMIC COOPERATION FOUNDATION, priority 2021, published 2025).

Sequence of recombinant TLR4 (O00206 24-839, species assumed): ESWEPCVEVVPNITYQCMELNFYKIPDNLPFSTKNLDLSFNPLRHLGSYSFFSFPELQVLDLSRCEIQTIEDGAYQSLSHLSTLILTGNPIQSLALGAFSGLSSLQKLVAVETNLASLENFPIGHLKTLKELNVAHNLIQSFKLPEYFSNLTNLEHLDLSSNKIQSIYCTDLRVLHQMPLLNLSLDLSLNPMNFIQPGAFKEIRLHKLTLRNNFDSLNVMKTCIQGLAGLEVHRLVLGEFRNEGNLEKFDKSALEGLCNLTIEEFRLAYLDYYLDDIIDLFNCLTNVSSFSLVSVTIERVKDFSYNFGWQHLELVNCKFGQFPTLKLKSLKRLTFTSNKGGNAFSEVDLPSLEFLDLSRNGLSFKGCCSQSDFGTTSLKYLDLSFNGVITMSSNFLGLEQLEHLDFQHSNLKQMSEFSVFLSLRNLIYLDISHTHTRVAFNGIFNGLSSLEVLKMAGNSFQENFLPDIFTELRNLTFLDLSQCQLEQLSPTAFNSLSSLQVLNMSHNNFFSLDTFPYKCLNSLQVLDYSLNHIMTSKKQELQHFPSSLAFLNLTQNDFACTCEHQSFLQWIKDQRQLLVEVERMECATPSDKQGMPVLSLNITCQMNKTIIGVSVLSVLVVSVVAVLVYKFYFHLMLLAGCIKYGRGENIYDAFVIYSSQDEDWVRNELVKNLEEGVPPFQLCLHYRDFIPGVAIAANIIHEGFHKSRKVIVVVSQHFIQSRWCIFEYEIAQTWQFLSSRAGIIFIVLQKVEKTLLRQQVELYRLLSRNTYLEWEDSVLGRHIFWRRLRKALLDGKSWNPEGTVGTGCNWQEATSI

As for hyaluronic acid [10 kDa free HA], the “change in response unit (RU) value” is “the increase in RU value identified in the HACN group was not observed”.
